How the values were obtained:
Type III PDE = molecular target: T1, Type III PDE (Rattus norvegicus, UniProt Q62865); experiment: PDE III inhibitory activity (Test Example 1); type: biochemical; settings: for IC50: Table I, PDE III partially purified from rat blood platelets, 3H-cAMP substrate; for PDE III inhibitory activity relative to that of the racemate: ratio to racemate
T1 construct: from tissue; host or cells: rat blood platelets
T1 sequence (Q62865 1-1141): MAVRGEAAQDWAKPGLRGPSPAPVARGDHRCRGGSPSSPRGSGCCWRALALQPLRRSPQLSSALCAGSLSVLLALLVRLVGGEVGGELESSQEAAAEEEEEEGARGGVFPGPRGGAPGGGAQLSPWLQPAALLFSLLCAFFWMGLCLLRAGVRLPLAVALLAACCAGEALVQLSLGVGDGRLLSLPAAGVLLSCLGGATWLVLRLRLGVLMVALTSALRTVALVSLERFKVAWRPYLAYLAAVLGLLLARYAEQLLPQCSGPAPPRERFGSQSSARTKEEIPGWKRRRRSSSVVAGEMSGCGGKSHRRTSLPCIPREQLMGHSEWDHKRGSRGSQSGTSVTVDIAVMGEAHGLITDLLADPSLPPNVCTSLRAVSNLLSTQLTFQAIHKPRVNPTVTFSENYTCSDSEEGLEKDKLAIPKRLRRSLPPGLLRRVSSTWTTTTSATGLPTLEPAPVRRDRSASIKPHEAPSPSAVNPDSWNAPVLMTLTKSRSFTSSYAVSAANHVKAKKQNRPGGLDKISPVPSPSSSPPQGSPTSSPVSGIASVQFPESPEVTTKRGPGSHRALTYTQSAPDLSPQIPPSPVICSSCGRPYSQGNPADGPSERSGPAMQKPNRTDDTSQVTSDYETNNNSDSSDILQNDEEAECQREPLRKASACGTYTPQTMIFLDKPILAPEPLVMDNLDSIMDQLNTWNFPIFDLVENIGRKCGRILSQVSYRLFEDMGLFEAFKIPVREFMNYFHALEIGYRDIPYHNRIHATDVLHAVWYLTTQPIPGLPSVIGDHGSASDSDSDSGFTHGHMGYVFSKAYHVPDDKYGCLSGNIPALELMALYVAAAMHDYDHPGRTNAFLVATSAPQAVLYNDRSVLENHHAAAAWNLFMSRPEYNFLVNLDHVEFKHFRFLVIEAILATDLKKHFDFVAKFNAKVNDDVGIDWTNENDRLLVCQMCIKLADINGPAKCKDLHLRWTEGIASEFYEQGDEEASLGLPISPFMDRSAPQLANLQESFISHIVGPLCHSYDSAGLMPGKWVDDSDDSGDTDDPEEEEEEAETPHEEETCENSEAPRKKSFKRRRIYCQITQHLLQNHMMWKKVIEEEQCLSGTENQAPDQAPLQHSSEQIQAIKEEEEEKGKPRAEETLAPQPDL
Description: (§1) To investigate the PDE inhibitory activity and selectivity of the compound, Type I, Type III, Type IV and Type V, that is, four types of PDE isozymes were prepared Trends Pharmacol. Sci. (TiPS), vol. 12, 19-27(1991). The Type I PDE used was one purchased from Sigma. Further, the Type III, Type IV and Type V PDE isozymes used were those partially purified from the blood platelets (Type III and Type V) or neutrophils (Type IV) taken from rats. Each enzyme source was homogenized in a buffer (pH6.5) containing 20 mM Bis-Tris, EDTA (ethylene diamine tetraacetate) 2 mM, PMSF (phenylmethylsulfonyl fluoride) 0.1 mM, 2-mercaptoethanol 5 mM, pepstatin 0.001 mM, and leupeptin 0.01 mM and centrifuged at 30000×G for 30 minutes. The centrifuged supernatent was passed through an ion exchange column (Q Sepharose Fast Flow, made by Pharmacia) and eluted by 0-1M sodium acetate. The partially purified isozyme was identified by investigating the effects of known selective inhibitors.
(§2) The tested compound was dissolved in DMSO (dimethylsulfoxide) and added to 50 mM tris-HCl buffer containing 5 mM […]. To this reaction solution, the above PDE isozyme and ^3H-cAMP (when Type III or Type IV of PDE) or ^3H-cGMP (when Type I or Type V of PDE) was added, as a substrate, and the mixture reacted at 30° C. for 30 minutes. After the reaction, the reaction mixture was placed in a 100° C. boiling solution for 5 minutes to stop the reaction. The nucleotide produced by the PDE was decomposed by 5′-nucleotidase into ^3H-adenosine or ^3H-guanosine. The unreacted substrate and reaction product were passed through an ion exchange column (QAE Sephadex, made by Pharmacia)to separate them. The radioactivity of the eluted ^3H-nucleoside was measured by a liquid sintillation counter. The inhibitory activity of each tested compound was indicated by the IC50 value (μM). The inhibitory activity against Type IV was shown in Table 2, while the inhibitory activity against Type III was shown in Table 3. Further, the inhibitory activity of each test compound to Type I and Type V was less than 1/10 to Type IV.

Type IV PDE [1] = system: T2, Type IV PDE; experiment: PDE IV inhibitory activity (Test Example 1); type: biochemical, rat; settings: for IC50: 3H-cAMP substrate; for PDE IV inhibitory activity relative to that of the racemate: ratio to racemate
T2 construct: PDE IV partially purified from rat neutrophils, 3H-cAMP substrat; PDE IV from rat neutrophils, 3H-cAMP substrate; other: ratio to racemate
Description: as §1, §2

Type IV PDE [2] = experiment: PDE IV inhibitory activity (Test Example 1); type: biochemical, rat; settings: PDE IV versus PDE III, compared with the racemate
Description: as §1, §2

[3] = Table I, PDE IV partially purified from rat neutrophils
[4] = Table II, PDE IV from rat neutrophils
[5] = listed as The compound of the present invention

SMILES	IC50 (Type III PDE)	IC50 (Type IV PDE [1]; [3])	IC50 (Type IV PDE [1]; [4])	PDE III inhibitory activity relative to that of the racemate (Type III PDE)	PDE III inhibitory activity relative to that of the racemate (Type III PDE; [5])	selectivity with respect to PDE IV (Type IV PDE [2])	PDE IV inhibitory activity relative to that of the racemate (Type IV PDE [1])	PDE IV inhibitory activity relative to that of the racemate (Type IV PDE [1]; [5])
COc1ccc(NC2=C(C)C(=O)CC2)cc1O[C@@H]1C[C@H]2CC[C@@H]1C2 (racemic) [(±)-isomer, (±)-3-[3-[(1RS,2RS,4SR)-bicyclo[2.2.1]hept-2-yloxy]-4-methoxyanilino]-2-methyl-2-cyclopenten-1-one, reference compound]	3860 nM	270 nM	270 nM					
COc1ccc(NC2=C(C)C(=O)CC2)cc1O[C@@H]1C[C@H]2CC[C@@H]1C2 [(−)-isomer, (−)-3-[3-[(1R,2R,4S)-bicyclo[2.2.1]hept-2-yloxy]-4-methoxyanilino]-2-methyl-2-cyclopenten-1-one]	9030 nM	120 nM	120 nM	less than half of that of the racemate	less than ½	high	about twice that of the racemate	at least two times that of a racemate
COc1ccc(NC2=C(C)C(=O)CC2)cc1O[C@H]1C[C@@H]2CC[C@H]1C2 [(+)-isomer, (+)-3-[3-[(1S,2S,4R)-bicyclo[2.2.1]hept-2-yloxy]-4-methoxyanilino]-2-methyl-2-cyclopenten-1-one]	1570 nM	360 nM	360 nM	twice or more of that of the racemate		low	about ¾	
